The source of these data is the NIST ThermoML archive (doi:10.1016/j.tca.2013.06.022).

Numbers after ± are expanded uncertainties.

For the data set the following is noted: for Normal melting temperature: Crystal.

For the compound `CCCCCCCCC[n+]1cccc(C)c1.[Cl-]` [1-nonyl-3-methylpyridinium chloride], the Normal melting temperature (visual observation) was determined as 64.00 ± 5 °C.

For `C=CC[n+]1cccc(C)c1.[Cl-]` [1-allyl-3-methylpyridinium chloride], the Normal melting temperature (visual observation) came out at 108.00 ± 5 °C. In addition, the Glass transition temperature (DTA) worked out at 27.50 ± 5 °C.

For `CC[n+]1cccc(C)c1.[Br-]` [1-ethyl-3-methylpyridinium bromide], the Normal melting temperature is 146.00 ± 5 °C (DTA) and 163.00 ± 5 °C (visual observation).

Consider `CCCCC[n+]1cccc(C)c1.[Cl-]` [1-pentyl-3-methylpyridinium chloride], for which the Normal melting temperature (visual observation) stood at 92.00 ± 5 °C. Moreover, the Glass transition temperature (DTA) amounted to 21.50 ± 5 °C.

Consider `CCCC[n+]1cccc(C)c1.[Cl-]` [1-butyl-3-methylpyridinium chloride], for which, where the note is “DTA”, the Normal melting temperature is 93.00 ± 5 °C and the Glass transition temperature was 35.00 ± 5 °C. The Normal melting temperature (visual observation) amounted to 97.00 ± 5 °C.

With `CC[n+]1cccc(C)c1.[Cl-]` [1-ethyl-3-methylpyridinium chloride], the Normal melting temperature (visual observation) came to 130.00 ± 5 °C. In addition, the Glass transition temperature (DTA) is 29.00 ± 5 °C.

With `CCCCCCCCCC[n+]1cccc(C)c1.[Cl-]` [1-decyl-3-methylpyridinium chloride], the Normal melting temperature runs as follows: (DTA) 55.00 ± 5 °C; (visual observation) 64.00 ± 5 °C.

In the case of `CCCCCCCC[n+]1cccc(C)c1.[Cl-]` [1-octyl-3-methylpyridinium chloride], the Normal melting temperature came to 69.00 ± 5 °C (DTA) and 74.00 ± 5 °C (visual observation).

For the compound `CCCCCC[n+]1cccc(C)c1.[Cl-]` [1-hexyl-3-methylpyridinium chloride], the Normal melting temperature (DTA) amounted to 62.00 ± 5 °C and the Normal melting temperature (visual observation) turned out to be 77.00 ± 5 °C.

Consider `CCCCCCC[n+]1cccc(C)c1.[Cl-]` [1-heptyl-3-methylpyridinium chloride], for which the Normal melting temperature (visual observation) amounted to 72.00 ± 5 °C. Also, the Glass transition temperature (DTA) was found to be 16.50 ± 5 °C.

In the case of `CCC[n+]1cccc(C)c1.[Cl-]` [1-propyl-3-methylpyridinium chloride], the Normal melting temperature (visual observation) turned out to be 92.00 ± 5 °C. The Glass transition temperature (DTA) was found to be 18.50 ± 5 °C.
